From patent US9302014B2, “Cell-penetrating peptides having a central hydrophobic domain” (Medical Research Council, priority 2011, dated 2016)
Like-named read-outs stand apart in the source and are kept apart here. Non-standard residues stand in square brackets, D forms with d. No end group written: not given here. Ahx = NCCCCCC(=O)O; βAla = NCCC(=O)O

What was measured:
dystrophin exon 23 = assay: Exon skipping in differentiated mouse H2K mdx myotubes (nested RT-PCR, densitometry); assay type: cell-based; settings: no transfection agent
Protocol: The exon skipping potential of Pip6-PMO conjugates was evaluated in differentiated mouse H2K mdx myotubes in the absence of any transfection agent (FIG. 1) at concentrations ranging from 0.125 μM to 1 μM. […] In the case of Pip6 sequences, the flanking arginine-rich sequences are identical (with the exception of Pip6e, which is identical except for one arginine immediately preceding the core which is displaced into the second position of the core). […] Note that we have previously shown that major changes in in vitro exon skipping activities are correlated instead with the total numbers of arginine residues [Saleh, A. F., et al., Synthesis and splice-redirecting activity of branched, arginine-rich peptide dendrimer conjugates of peptide nucleic acid oligonucleotides. Bioconjug Chem, 2010. 21(10): p. 1902-11.].
H2K mdx myotubes are derived from H2K mdx myoblasts obtained from the EDL muscle of a male H2K mdx f2 mouse. The cells are dystrophin deficient and conditionally immortal due to thermolabile simian virus 40 large tumor antigen (tsA58) expression. The myoblasts proliferate at 33° C. (10% CO2) in rich culture and differentiate into myotubes at 37° C. in media with horse serum.
H2K mdx myotubes were prepared and incubated with peptide-PNA and peptide-PMO conjugates in the absence of any transfection agent by the methods described previously (Wang, Q, Yin, H, et aL (2010) In vitro evaluation of novel antisense oligonucleotides is predictive of in vivo exon skipping activity for Duchenne muscular dystrophy) but with minor variations.
Myotubes were obtained from confluent H2K mdx cells seeded in gelatine coated 24-well plates following 2 days of serum deprivation (DMEM with 5% horse serum). The conjugates were incubated with myotubes for 4 h in 0.5 mL OptiMEM and then replaced by 1 mL of DMEM/5% horse serum media for further incubation. After 20 h myotubes were washed twice with PBS and total RNA was extracted with 0.5 mL of TRI Reagent (Sigma, UK). RNA preparations were treated with RNAse free DNAse (2U) and Proteinase K ([…]) prior to RT-PCR analysis. RT-PCR was carried out in 25 μL with 1 μg RNA template using SuperScript III One-Step RTPCR System with Platinum Taq DNA polymerase (Invitrogen) primed by forward primer 5′CAG AAT TCT GCC AAT TGC TGAG3′ [SEQ ID NO:312] and reverse primer 5′TTC TTC AGC TTG TGT CAT CC3′ [SEQ ID NO:313]. The initial cDNA synthesis was performed at 55° C. for 30 min followed by 30 cycles of 95° C. for 30 sec, 55° C. for 1 min and 68° C. for 80 sec. RT PCR product ([…]) was then used as the template for secondary PCR performed in 25 μL with 0.5 U Super TAQ polymerase (HT Biotechnologies) and primed by forward primer 5′CCCAGTCTACCACCCTATCAG AGC3′ [SEQ ID NO:314] and reverse primer 5′CCT GCC TTT AAG GCT TCC TT3′ [SEQ ID NO:315]. The cycling conditions were 95° C. for 1 min, 57° C. for 1 min and 72° C. for 80 sec for 25 cycles. Products were examined by 2% agarose gel and after scanning using Gene Tools Analysis Software (SynGene) the relative amount of exon 23 skipping was expressed as a percentage at a given concentration of conjugates averaged over duplicates of three experiments.
H2K mdx myotubes were prepared and incubated with peptide-PMO conjugates in the absence of any transfection agent at concentrations of 0.125, 0.25, 0.5 and 1.0 μM by the method described previously [Yin, H., et al., Pip5 transduction peptides direct high efficiency oligonucleotide-mediated dystrophin exon skipping in heart and phenotypic correction in mdx mice. Mol Ther, 2011. 19(7): p. 1295-303.]. The products of nested RT-PCR from total isolated RNA were examined by electrophoresis on a 2% agarose gel. Quantification of Δ23 transcript levels was calculated using densitometry. […]

[1] = mice; cited from earlier work
[2] = monkeys; cited from earlier work
dystrophin [3] = assay: Immunohistochemical staining and quantification of dystrophin in mdx mice after single IV injection; assay type: in vivo; settings: 8 week old mdx mice, single 12.5 mg/kg IV, 2 weeks after injection
Description: Given the potency of Pip5e-PMO in heart tissue, the aim of altering the sequence of the hydrophobic core (whilst maintaining the 5-aa length) was to identify peptides that might be more efficient at lower doses. These modifications included inversion of the hydrophobic region (Pip6a), substitution of tyrosine by isoleucine (Pip6b), substitution of glutamine in the Pip6a sequence by displacement of the arginine immediately flanking the core in the first arginine-rich flanking region (Pip6e), and a scrambled hydrophobic core sequence (Pip6f). All Pip6 peptide-PMO conjugates were administered to mdx mice as single 12.5 mg/kg intravenous injections via the tail vein and tissues were harvested 2 weeks later and assessed for activity at both RNA and protein levels.
Immunohistochemical staining quantification (FIGS. 34a, b) was performed as previously described [Malerba, A., et al., Chronic systemic therapy with low-dose morpholino oligomers ameliorates the pathology and normalizes locomotor behavior in mdx mice. Mol Ther, 2011. 19(2): p. 345-54; Arechavala-Gomeza, V., et al., Immunohistological intensity measurements as a tool to assess sarcolemma-associated protein expression. Neuropathol Appl Neurobiol, 2010. 36(4): p. 265-74.] and was achieved by taking 4 representative frames of the dystrophin staining and correlating this with laminin staining for each section (n=3) of the quadriceps, diaphragm and heart for each peptide-PMO treatment. Untreated mdx and treated mdx mice were normalised to C57BL10 mice. This method allows comparison of the staining intensity of dystrophin at the sarcolemma relative to laminin for each treatment group. Intensity ratios are normalised to C57BL10 samples and each region of interest at the sarcolemma (120 regions for each treatment group) is plotted on a scatter graph. […]
Transverse sections of tissue samples were cut (8 μm thick) for the examination of dystrophin expression. For dystrophin visualisation and quantification, sections were co-stained with rabbit-anti-dystrophin (Abcam) and rat anti-laminin (Sigma), and detected by goat-anti-rabbit IgG Alexa 594 and goat-anti-rat IgG 488 secondary antibodies respectively (Invitrogen). […] Quantitative immunohistochemistry was performed as previously described [Malerba, A., et al., Chronic systemic therapy with low-dose morpholino oligomers ameliorates the pathology and normalizes locomotor behavior in mdx mice. […] For quantification, 4 representative frames of the dystrophin and correlating laminin were taken for each section (n=3) of the quadriceps, diaphragm and heart for each treatment. […] The minimum and maximum fluorescence intensity for 120 regions were recorded for each treatment. […]

dystrophin [4] = settings: intramuscular or intravenous delivery in mdx mice; cited from earlier work
[5] = Example 5, conjugate 0.125 to 2.0 μM

Pip9c3: Pip9 series peptide (SEQ ID Nos 320-328) conjugated to PMODMD (R[Ahx]RR[βAla]RFQILYRR[βAla]R[βAla]; also: conjugated to PMO (PMODMD))
exon skipping activity (Δ23 skipping) in mdx muscle cells (dystrophin exon 23; [5]): high exon skipping activity

Pip7d: Pip7 series peptide (SEQ ID NOs:11-16) conjugated to PMODMD (R[Ahx]R[βAla][Ahx]YRFLI[Ahx]R[βAla]R[Ahx]R[βAla]; also: conjugated to PMO (PMODMD), site not given here)
exon skipping activity (Δ23 skipping) in mdx muscle cells (dystrophin exon 23; conjugate 0.125 to 1 μM): moderate exon skipping

Exon-skipping PMO: phosphorodiamidate morpholino oligonucleotide for exon skipping, unconjugated, from cited toxicology studies (GGCCAAACCTCGGCTTACCTGAAAT; all phosphorodiamidate morpholino (PMO))
well tolerated dosage [1]: ≤ 960 mg/kg
well tolerated dosage [2]: ≤ 320 mg/kg

Pip9d: Pip9 series peptide (SEQ ID Nos 320-328) conjugated to PMODMD (R[Ahx]RR[βAla]RFQILY[βAla]R[βAla]R[βAla]; also: conjugated to PMO (PMODMD))
dystrophin expression in the heart (dystrophin [3]): negligible dystrophin production
exon skipping activity (Δ23 skipping) in mdx muscle cells (dystrophin exon 23; [5]): high exon skipping activity

Pip8c2: Pip8 series peptide (SEQ ID NOs:17-20) conjugated to PMODMD (R[Ahx]RR[βAla]RYQFLIRR[βAla]R[βAla]; also: conjugated to PMO (PMODMD))
dystrophin expression in the heart (dystrophin [3]): negligible dystrophin production
exon skipping activity (Δ23 skipping) in mdx muscle cells (dystrophin exon 23; [5]): high exon skipping activity

Pip8d: Pip8 series peptide (SEQ ID NOs:317-319) conjugated to PMODMD (R[Ahx]RR[βAla]RYQFLI[βAla]R[Ahx]R[βAla]; also: conjugated to PMO (PMODMD))
exon skipping activity (Δ23 skipping) in mdx muscle cells (dystrophin exon 23; [5]): high exon skipping activity

RXRRBRRXRRBRXB (R[Ahx]RR[βAla]RR[Ahx]RR[βAla]R[Ahx][βAla]; also: conjugated to PMO (PMODMD)) [B peptide]
exon skipping and dystrophin production compared to naked PMODMD (dystrophin [4]): significantly enhance exon skipping and dystrophin production

Pip8a: Pip8 series peptide (SEQ ID NOs:17-20, parent Pip 6a; 9 Arg) conjugated to PMODMD (R[Ahx]RR[βAla]R[Ahx]RYQFLIR[Ahx]RR[βAla]R[βAla]; also: conjugated to PMO (PMODMD))
exon skipping activity (Δ23 skipping) in mdx muscle cells (dystrophin exon 23; [5]): high exon skipping activity
exon skipping activity (Δ23 skipping) in mdx muscle cells (dystrophin exon 23; conjugate 0.125 to 1 μM): high exon skipping activity

Pip9c2: Pip9 series peptide (SEQ ID Nos 320-328) conjugated to PMODMD (R[Ahx]RR[βAla]RRFQILY[βAla]R[Ahx]R[βAla]; also: conjugated to PMO (PMODMD))
exon skipping activity (Δ23 skipping) in mdx muscle cells (dystrophin exon 23; [5]): high exon skipping activity
